Measurements taken from paper PMC10404700, “A new member of the flavodoxin superfamily from Fusobacterium nucleatum that functions in heme trafficking and reduction of anaerobilin” (The Journal of Biological Chemistry, 2023).

Target: T1, FldH (Fusobacterium nucleatum, UniProt Q8RI14)
T1 construct: gene FN1822; full-length, 169 residues, N-terminal His6 tag (pET15b) cut with thrombin; expressed in E. coli BL21(DE3)pLysS; monomer
Assay: X-ray crystal structure, […] A
Format: binding
Conditions: heme-bound protein; FMN copurified

T1 sequence (Q8RI14 entry or part of it): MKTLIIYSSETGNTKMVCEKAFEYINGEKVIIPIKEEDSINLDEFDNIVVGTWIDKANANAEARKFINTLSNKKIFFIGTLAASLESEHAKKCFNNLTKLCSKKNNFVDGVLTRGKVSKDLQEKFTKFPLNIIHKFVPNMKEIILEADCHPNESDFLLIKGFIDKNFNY

For `Cc1cc2nc3c(=O)[nH]c(=O)nc-3n(C[C@H](O)[C@H](O)[C@H](O)COP(=O)(O)O)c2cc1C` [FMN], the “X-ray crystal structure, 1.6 A” value was “The FMN cofactor is situated at the carboxyl-terminal end of the β-parallel sheet”.
